Source: patent US20240415858A1, “PROMOTING MYELINATION BY N-ACETYLGLUCOSAMINE AND MODULATION OF N-GLYCAN BRANCHING” (THE REGENTS OF THE UNIVERSITY OF CALIFORNIA, priority 2021, published 2024)

What was measured:
[1] = tested on: mouse neural stem cells (NSC) derived from the medial ganglionic eminence of E12.5 mouse embryos; assay: Oligodendrogenesis from mouse neural stem cells in vitro (flow cytometry, immunofluorescence); assay type: cell-based; conditions: NSC in PDGF-AA differentiation media, 48 hrs
Description: Mice were bred and utilized as approved by the University of California, Irvine Institutional Animal Care and Use Committee. Dorsal forebrain cortical tissue was dissected from the medial ganglionic eminence (MGE) at embryonic day 12.5 (E12) of CD1 mice (Charles River) or Mgat5−/− C57BL/6 mice and their wildtype littermates and placed in dissection buffer comprising PBS, 0.6% glucose, and 50 U/mL Pen/Strep. Tissue from multiple embryos within the same litter were pooled, and a subsequent culture from a single litter was considered a biological repeat. The tissue was dissociated using 0.05% Trypsin-EDTA at 37° C. for 10 min, followed by treatment with soybean trypsin inhibitor (Life Technologies). Dissociated cells were re-suspended in proliferation medium comprising DMEM, 1× B27, 1× N2, 1 mM sodium pyruvate, 2 mM L-glutamine, 1 mM N-acetylcysteine, 20 ng/mL EGF (PeproTech), 10 ng/mL bFGF (PeproTech), and 2 μg/mL heparin and seeded at 150,000 cells/mL (non-tissue culture treated plastic plates) and grown as non-adherent spheres. Cell cultures were passaged approximately every 3 days using enzyme-free NeuroCult Chemical Dissociation Kit (Mouse) (StemCell Technologies). Cultures were passaged at least once prior to experimental use. For experiments, passaged cells were cultured in proliferation media (bFGF and EGF) or differentiation media (bFGF (10 ng/ml) and PDGF-AA (10 ng/ml); Life technologies) for 48 hours with or without the presence of GIcNAc (Ultimate Glucosamine, Wellesley Therapeutics) or kifunensine (GlycoSyn). Neurospheres were dispersed using the enzyme-free NeuroCult kit before being analyzed by flow cytometry using one or more of the following antibodies: anti-CD140a/PDGF-RA PE conjugate (1:200, A15785, Molecular Probes), anti-04 Alexa Fluor 488 conjugated (1:200, FAB1326G, RnD systems), Anti-GaIC Alexa Fluor 647 1:200, MAB342-AF647, Millipore), Anti-Olig2 (1:200, AB9610, Millipore) with anti-rabbit Alexa Fluor 488 (1:200, thermofisher).
For neural stem cell (NSC) immunofluorescence, whole neurospheres were seeded onto laminin-coated coverslips (Neuvitro) in proliferation medium. After 24 hours, proliferation media was removed and replaced with differentiation medium (same components as proliferation medium but excluding EGF, bFGF, and heparin) to induce differentiation. For analysis of mouse brains, brains were incubated in 30% sucrose for at least 72 hours, embedded in OCT (Tissue-tek), frozen for at least 48 hours at −80° C., and then cut at 40 microns on a cryostat. Multiple sections from −1 bregma to −2.5 bregma were then stained with antibodies for MBP (1:100; MAB386, Millipore), Olig2 (1:200; AB9610, Millipore), CC1 (1:100; OP90, Millipore), degraded MBP (1:200, AB5864, Millipore) and Amyloid Precursor Protein (APP, 1:200; clone 22C11). After overnight incubation with primary antibody, tissues were washed and incubated with secondary antibodies: goat anti-rat Alexa-fluor 488 (1:200, Thermofisher), goat anti-rabbit TxRd (1:200, Thermofisher). APP is a marker for neuro-axonal damage while co-staining for CC1 and Olig2 are markers of mature oligodendrocytes. In order to examine the amount of myelin, slices were incubated in Fluoromyelin (1:300; F34651, Thermofisher) for 45 minutes. Images were acquired on a Keyence fluorescence microscope. Mean fluorescence intensity of the medial corpus callosum was measured using ImageJ.
Oligodendrogenesis were examined in vitro using mouse neural stem cells (NSC) derived from the medial ganglionic eminence of E12.5 mouse embryos, where OPC's first appear. […] Consistent with increased PDGFRα surface expression, GIcNAc also promoted pre-oligodendrocyte differentiation as evidenced by augmented expression of Oligodendrocyte Transcription Factor (OLIG2) and increased numbers of 04 and GaIC positive cells (FIGS. 1A, 1B and 1C, FIGS. 5B and 5C). […]

[2] = Brain uptake of oral [U13C]GIcNAc, LC-MS/MS of perfused brains

Molecule | PDGFRα surface expression [1] | number of O4 cells induced by PDGF-AA differentiation media [1] | UDP-[U13C]-HexNAc in brain ([2]; suckling pups of treated lactating mothers) | UDP-[U13C]-HexNAc in brain ([2]; treated adult female mice, 1 mg/mL in drinking water, perfused brains)
O=C1N[C@@H]2[C@@H](O)[C@@H](O)[C@H](O)[C@@H](CO)N2C1=O [kifunensine, reference compound] | significantly reduced | significantly reduced |  | 
N-Acetyl-D-[UL-^13C6]glucosamine [[U^13C]GIcNAc] |  |  | identified | identified
